Test results from patent publication US20210393742A1, “LONG-ACTING INTERLEUKIN-15 RECEPTOR AGONIST IN COMBINATION WITH ANOTHER PHARMACOLOGICALLY ACTIVE AGENT” (Nektar Therapeutics, priority 2018, published 2021).

How the values were obtained:
CD56+ human NK cells [1] = test: Functional activation of human NK cells in PBMCs, CD69 and CD107a MFI by flow cytometry (Example 6); type: cell-based; details: overnight; Conjugate 1 1 μg/ml; plate coated with hIgG 0.1 mg/ml
Protocol: Functional activation of human NK cells within a human peripheral blood mononuclear cells (PBMCs) preparation was induced in vitro. PBMCs from two donors were incubated overnight in the presence of (i) mono(methoxyPEG-N-butanamide)40 kD interleukin-15 (Conjugate 1) at a concentration of 1 μg/ml; (ii) on cell culture plastic that had been prior coated overnight with human total immunoglobulin G (hIgG) solution at a concentration of 0.1 mg/ml (iii) on cell culture plastic that had been prior coated overnight with human total immunoglobulin G (hIgG) solution at a concentration of 0.1 mg/ml and in the presence of Conjugate 1 at a concentration of 1 μg/ml; or (iv) on regular cell culture plastic.
After the incubation period, NK cell activation was measured with flow cytometry by measuring the increase of median fluorescence intensity (MFI) signal of CD69 (FIG. 9A) and CD107a (FIG. 9B) detecting antibodies on the surface of CD56+ human NK cells within the PBMCs. Functional activation of NK cells was assessed by calculating the fold-change in MFI when comparing control condition where the cells were exposed to neither hIgG nor Conjugate 1. […] Secreted granzyme B concentration also indicative of NK cell activation in the culture media at the end of the experiment was measured by ELISA (FIG. 9C).

Daudi B cell lymphoma = test: Survival in Daudi B cell lymphoma xenograft model, combination with rituximab (Example 1); type: in vivo, mice; details: after about 35 days; agonist 0.3 mg/kg, days 14 and 17
Protocol: At day 0, SCID mice were intravenously injected with 1×10^7 Daudi cells. The mice were divided into four groups. On days 14 and 17 post-Daudi cell injection, the groups were treated by injection as follows: Group 1: isotype control antibody, Group 2: 40 mg/kg IP rituximab, Group 3: 0.3 mg/kg mono(methoxyPEG-N-butanamide)40 kD interleukin-15 (a long-acting IL-15 receptor agonist), Group 4: 40 mg/kg IP rituximab and 0.3 mg/kg SC mono(methoxyPEG-N-butanamide)40 kD interleukin-15 (combination).
The survival rate was determined by measuring the onset of hind limb paralysis as a surrogate parameter.

NCI-N87 cells = test: Tumor growth inhibition in NCI-N87 gastric carcinoma model (Example 22); type: in vivo, mice; details: 25 days after treatment initiation; trastuzumab 3/1/1 mg/kg IV; Compound 1 0.3 mg/kg IV x3
Protocol: Tumor growth inhibition in inoculated mice was measured 25 days after treatment initiation. Results are provided graphically in FIG. 25.

CD56+ human NK cells [2] = test: Human NK cell proliferation in CFSE labeled PBMCs (Example 5); type: cell-based; details: 5 days; Conjugate 1 100 ng/ml; plate coated with hIgG 0.1 mg/ml
Protocol: NK cell proliferation within a human peripheral blood mononuclear cell (PBMCs) labeled with CFSE preparation was induced in vitro. The CFSE labeled PBMCs were incubated for 5 days in vitro in the presence of (i) mono(methoxyPEG-N-butanamide)40 kD interleukin-15 (Conjugate 1) at a concentration of 100 ng/ml; (ii) on cell culture plastic that had been prior coated overnight with human total immunoglobulin G (hIgG) solution at a concentration of 0.1 mg/ml (iii) on cell culture plastic that had been prior coated overnight with human total immunoglobulin G (hIgG) solution at a concentration of 0.1 mg/ml and in the presence of Conjugate 1 at a concentration of 100 ng/ml; or (iv) on regular cell culture plastic. After the incubation period, cell proliferation as indicated by the decrease of CFSE in the cells that had undergone cell doublings was measured with flow cytometry (FIGS. 8A-8D) measuring CFSE levels in CD56+ human NK cells within the PBMCs preparation in each of the four incubation conditions.

[3] = tested on: HCT-116 colorectal carcinoma cells; test: Tumor growth inhibition and delay in HCT-116 colorectal carcinoma xenograft model (Example 19); type: in vivo, mice
Protocol: Tumor growth inhibition was evaluated on day 19 after treatment initiation.
The tumor growth delay was evaluated by measuring tumor volume quadrupling time (TVQT) from baseline tumor volume on treatment initiation day.

[4] = tested on: HT-29 colorectal carcinoma cells; test: Tumor growth inhibition and delay in HT-29 colorectal carcinoma model (Example 18); type: in vivo, mice; details: day 21 after treatment initiation; cetuximab 40 mg/kg IP x6; Compound 1 0.3 mg/kg IV x3
Protocol: Tumor growth inhibition was evaluated on day 21 after treatment initiation.
The tumor growth delay (TVQT) was evaluated with the endpoint set as 400% tumor growth from baseline.

CD56+ human NK cells [5] = test: Dose response of human NK cell proliferation in CFSE labeled PBMCs (Example 8); type: cell-based; details: 5 days
Protocol: Human peripheral blood mononuclear cell (PBMCs) labeled with a CFSE preparation were incubated for 5 days in vitro in the presence of increasing doses of rhIL-15 (dose range 1 ng/ml-100 ng/ml, 5 point, 3 fold dilutions) or a long-acting IL-15 receptor agonist (mono(mPEG-butanamide)IL-15) (dose range 10 ng/ml-1000 ng/ml, 5 point, 3 fold dilutions). After the incubation period, cell proliferation as indicated by the decrease of CFSE in the cells that had undergone cell doublings was measured with flow cytometry measuring CFSE levels in CD56+ human NK cells within the PBMCs preparation.

## mono(methoxyPEG-N-butanamide)40 kD interleukin-15 [Conjugate 1]
CD56+ human NK cells [1]
  CD69 MFI fold-change relative to no stimulation control: 1.8 fold
  CD107a MFI fold-change relative to no stimulation control: 2.6 fold
Daudi B cell lymphoma
  survival: 0%
NCI-N87 cells
  tumor growth inhibition: no tumor growth inhibition
CD56+ human NK cells [2]
  % CD56+ NK cells proliferating: 49.7%
[3]; day 19 after treatment initiation, cetuximab 40 mg/kg IP x6, Compound 1 0.3 mg/kg IV x3
  tumor growth inhibition: 31%
[3]; tumor volume quadrupling time from baseline
  tumor growth delay (TVQT): 26%
[4]
  tumor growth inhibition: no tumor growth inhibition
CD56+ human NK cells [5]
  EC50 (ng/ml)-% proliferation: 39.04 ng/mL
  Emax-% proliferation: 71.6%
  potency in inducing human NK cell proliferation, fold less than rhIL-15: approximately 17 fold
